Assay results reported in publication PMC10564737, “Structure-based design of a phosphotyrosine-masked covalent ligand targeting the E3 ligase SOCS2” (Nature Communications, 2023).
“And” between values parts separate entries of the source, which are not always exact repeats. Equal values may be shown once. Read-outs that look alike come from different tables or passages of the source.

Biological target: T1, SBC2 (Homo sapiens, UniProt O14508)
T1 construct: SOCS2 (amino acids 32–198); His6 (N, cleaved yes); made in house; host or cells: E. coli BL21(DE3)
T1 sequence (O14508 32-198): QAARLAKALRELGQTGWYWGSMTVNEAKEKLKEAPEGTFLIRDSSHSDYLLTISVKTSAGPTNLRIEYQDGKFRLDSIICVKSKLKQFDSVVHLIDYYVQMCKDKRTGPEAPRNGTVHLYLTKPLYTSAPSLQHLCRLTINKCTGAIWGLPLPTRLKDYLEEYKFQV
T1 sequence (Q15370 1-104 partner limits assumed): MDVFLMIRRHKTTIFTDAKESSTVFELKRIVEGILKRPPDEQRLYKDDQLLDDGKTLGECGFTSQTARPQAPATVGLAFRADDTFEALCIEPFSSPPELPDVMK
T1 sequence (Q15369 17-112 partner limits assumed): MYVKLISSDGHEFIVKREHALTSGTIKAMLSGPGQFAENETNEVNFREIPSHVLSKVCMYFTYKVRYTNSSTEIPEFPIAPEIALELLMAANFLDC
Experiment: Covalent fluorescence polarization (FP) probe displacement assay
Type: binding
Parameters: Michaelis-Menten best-fit value Vmax / Michaelis-Menten best-fit Vmax: unit not given here
Conditions: for Anisotropy: Cycle 12 (55 min)
Text: With the specific covalent modification of Cys111 established, we decided to fully characterize MN551 as a covalent SOCS2 inhibitor. […] (Fig. 2g, h, Supplementary Fig. 9). Due to the covalent nature of the competing inhibitor, a time-dependent reduction in the fraction of protein-bound probe is observed. […] This value illustrates reasonable specificity for a covalent inhibitor, with nonetheless scope for future optimization. In addition to characterizing the kinetic covalency parameters, we have also assessed the stability of the MN551 by monitoring its reactivity (half-life >70 min) with reduced glutathione (GSH) (Supplementary Fig. 10)[35].
To monitor the SBC2-ligand binding kinetics we designed a fluorescein-labeled small-molecule probe - compound 26. The fluorescence polarization (anisotropy) of a threefold serial dilution of 50 µM SBC2 in 10 nM of the probe in 100 mM HEPES pH 7.5, 50 mM NaCl, 0.5 mM TCEP, 2% DMSO was measured to determine the KL (Supplementary Fig. 9A) (BMG Labtech PHERAstar – firmware v1.33). Protein titration and the curves were fitted using GraphPad Prism 9, using one-site fitting models to determine the probe binding constant, KL. Samples were run in triplicate in 384 well plates, using a total volume per well of 16 μL. The bound fraction of the probe is measure using the equation:1 Fb=Af−A/Af−Ab Where,
A time-dependent reduction in probe anisotropy were measured for a 2-fold serial dilution of […] compound MN551 in 10 nM probe +300 μM SBC2. To determine the initial reversible binding affinity, the initial bound fraction of the probe at time = 0, Fbo (the y-intercept in Fb v/s Time plot, Supplementary Fig. 9B) was plotted against MN551 concentration, and the obtained IC50 is then converted to Ki (Supplementary Fig. 9C)[17]. The slope from Fb versus time graph when divided by Fbo gives rate of covalency, kobs. A plot of kobs v/s MN551 concentration using Michaelis–Menten model of GraphPad Prism 9, provides the parameters kinact (maximum potential rate of inactivation) and KI (concentration of MN551 at which kobs = kinact/2) (Supplementary Fig. 9D, E).
The observed first-order rate constant, kobs is related to KI and kinact by the equation:2 kobs=kinactI/KI+I
At [I]«[KI] the above equation is converted to3 […]
The slope from the plot of kobs against concentration of MN551 gives us the covalent efficiency parameter kinact/KI (Supp Fig. 9F)[30],[33].

[1] = MN551 1562.5 nM, Cycle 6 (25 min)
[2] = MN551 3125 nM, Cycle 6 (25 min)
[3] = MN551 6250 nM, Cycle 6 (25 min)
[4] = MN551 12500 nM, Cycle 6 (25 min)
[5] = MN551 25000 nM, Cycle 6 (25 min)
[6] = MN551 50000 nM, Cycle 6 (25 min)
[7] = linear fit through origin, 14 X values

SMILES: O=C(CCl)Nc1cccc(CNC(=O)[C@H](Cc2ccc(OP(=O)(O)O)cc2)NC(=O)Cc2ccc(F)cc2)c1 [MN551]
- Anisotropy based on Raw Data (485) (MN551 1562.5 nM, Cycle 7 (30 min)): 249.9 and 251.8 and 246.3
- Fb, fraction bound (MN551 1562.5 nM, Cycle 2 (5 min)): 0.7824 and 0.8178 and 0.7856
- Fb, fraction bound (MN551 1562.5 nM, Cycle 3 (10 min)): 0.7647 and 0.786 and 0.7702
- Anisotropy data 485,520,520 [1]: 247 and 253 and 251
- Fb [1]: 0.6849 and 0.7296 and 0.7125
- Anisotropy (MN551 1562.5 nM): 232.7 and 235.9 and 233.9
- Anisotropy based on Raw Data (485) (MN551 3125 nM, Cycle 7 (30 min)): 236.7 and 234.8 and 231.2
- Fb, fraction bound (MN551 3125 nM, Cycle 3 (10 min)): 0.6544 and 0.6694 and 0.6412
- Anisotropy data 485,520,520 [2]: 232.2 and 235.2 and 237.3
- Fb [2]: 0.5431 and 0.5648 and 0.5878
- Anisotropy (MN551 3125 nM): 219.6 and 215.4 and 213.4
- Anisotropy based on Raw Data (485) (MN551 6250 nM, Cycle 7 (30 min)): 210.9 and 211.2 and 208.6
- Fb, fraction bound (MN551 6250 nM, Cycle 3 (10 min)): 0.4366 and 0.4454 and 0.4414
- Anisotropy data 485,520,520 [3]: 214.2 and 214.4 and 216.1
- Fb [3]: 0.3707 and 0.3722 and 0.3949
- Anisotropy (MN551 6250 nM): 197.5 and 192.2 and 194.7
- Anisotropy data 485,520,520 (MN551 6250 nM, Cycle 19 (90 min), n=1): 182.4 and 180.6 and 182.5
- Anisotropy based on Raw Data (485) (MN551 12500 nM, Cycle 7 (30 min)): 198.9 and 196.3 and 194.4
- Fb, fraction bound (MN551 12500 nM, Cycle 3 (10 min)): 0.2711 and 0.337 and 0.3633
- Anisotropy data 485,520,520 [4]: 197.3 and 198 and 197.2
- Fb [4]: 0.2088 and 0.2204 and 0.2229
- Anisotropy (MN551 12500 nM): 181.6 and 186.4 and 190.6
- Anisotropy data 485,520,520 (MN551 12500 nM, Cycle 19 (90 min), n=1): 175.8 and 177.4 and 179.3
- Anisotropy based on Raw Data (485) (MN551 25000 nM, Cycle 7 (30 min)): 184.9 and 182.9 and 181.5
- Anisotropy based on Raw Data (485) (MN551 25000 nM, Cycle 8 (35 min)): 180.7 and 181.6
- Fb, fraction bound (MN551 25000 nM, Cycle 3 (10 min)): 0.1627 and 0.184 and 0.1553
- Anisotropy data 485,520,520 [5]: 189.8 and 187 and 188.6
- Fb [5]: 0.137 and 0.1185 and 0.1447
- Anisotropy (MN551 25000 nM): 177.2 and 177.1 and 175
- Anisotropy data 485,520,520 (MN551 25000 nM, Cycle 19 (90 min), n=1): 168.3 and 171.4 and 169.1
- Anisotropy based on Raw Data (485) (MN551 50000 nM, Cycle 7 (30 min)): 181.6 and 178.4 and 180.2
- Anisotropy based on Raw Data (485) (MN551 50000 nM, Cycle 8 (35 min)): 179.2 and 176.8 and 178.5
- Fb, fraction bound (MN551 50000 nM, Cycle 3 (10 min)): 0.08456 and 0.09836 and 0.08356
- Anisotropy data 485,520,520 [6]: 185.8 and 181.1 and 183.7
- Fb [6]: 0.09866 and 0.06389 and 0.1001
- Anisotropy (MN551 50000 nM): 173.6 and 173.5 and 174.7
- Anisotropy data 485,520,520 (MN551 50000 nM, Cycle 19 (90 min), n=1): 167.6 and 168.6 and 168.7
- Anisotropy based on Raw Data (485) (MN551 100000 nM, Cycle 7 (30 min)): 179.4 and 180.3 and 179.5
- Anisotropy based on Raw Data (485) (MN551 100000 nM, Cycle 8 (35 min)): 176.4 and 175.9
- Fb, fraction bound (MN551 100000 nM, Cycle 3 (10 min)): 0.06066 and 0.07013 and 0.06449
- Anisotropy data 485,520,520 (MN551 100000 nM, Cycle 6 (25 min)): 179.9 and 183.4
- Anisotropy (MN551 100000 nM): 176.4 and 173.8 and 174.3
- Anisotropy data 485,520,520 (MN551 100000 nM, Cycle 19 (90 min), n=1): 171.6 and 169.1
- Ki (Mean, n = 3, time = 0, read-out: Ki): 1.11 µM
- Ki (calculated from IC50 at time = 0, read-out: Ki at time = 0 (initial reversible binding affinity)): 1.1 µM
- Michaelis-Menten best-fit value Vmax (experiment n=1, 95% CI 0.01343 to 0.01564): 0.0145
- Linear fit best-fit value Slope (experiment n=1, Y = 3.349e-006*X + 0.000, 95% CI 3.026e-006 to 3.671e-006): 3.349e-6
- Slope of linear regression (Equation Y = slope*X + 0.000), covalent efficiency [7]: Y = 3.866e-006*X + 0.000
- Slope, 95% Confidence Intervals [7]: 3.764e-006 to 3.969e-006
- kinact (maximum potential rate of inactivation) (mean ± SEM, n = 3): 2.1 × 10^–4 s^-1
- kinact (mean ± SEM, n = 3, read-out: kinact (maximum potential rate of inactivation)): 0.0125 min⁻¹
- kinact/KI (covalent efficiency) (mean, n = 3): 57.53 M⁻¹ s⁻¹
- Ki (mean, n = 3, read-out: Ki): 3.56067 µM
- kinact (mean, n = 3, read-out: Kinact (converted)): 0.0153 min⁻¹
- kinact/KI (mean, n = 3, read-out: kinact/KI (covalent efficiency)): 3480 M⁻¹ min⁻¹
- Michaelis-Menten Vmax, 95% CI (profile likelihood) (n=2 experiment): 0.01305 to 0.01515
- Michaelis-Menten best-fit value Vmax (n=2 experiment, R squared 0.9902): 0.01406
- kinact (n=2 experiment, from Michaelis-Menten fit (Vmax), read-out: Kinact (min-1) (converted)): 0.0141 min⁻¹
- kinact (n=2 experiment, from Michaelis-Menten fit (Vmax), read-out: Kinact (s-1)): 0.014 min⁻¹
- kinact/KI (read-out: Slope: Kinact/Ki (M-1min-1), FP competition assay to evaluate MN551 covalent efficiency, replicate n=3, Michaelis-Menten fit): 3690 M⁻¹ min⁻¹
- Michaelis-Menten best-fit Vmax (replicate n=3, 95% CI 0.01570 to 0.01942): 0.01742
- Linear fit 1/slope (replicate n=3, Y-intercept 0): 258642
- Linear fit best-fit Slope (replicate n=3, Y-intercept 0, MN551 below Ki titration): 3.866e-6
- Kinact, individual replicates n1-n3 (single replicates): 0.014 min⁻¹
- Kinact/KI, individual replicates n1-n3 (single replicates): 52.40 M⁻¹ s⁻¹
- kinact (single replicates, read-out: Kinact, individual replicates n1-n3 (converted)): 0.0174 min⁻¹
- kinact/KI (single replicates, read-out: Kinact/KI, individual replicates n1-n3): 3860 M⁻¹ min⁻¹
